From US10005816B2, “Peptides and their use in food and beverage” (priority 2014, dated 2018)
Where no end group is shown, it is not given here.

Experiment: Sensory evaluation of peptide additive in coffee brew by five expert panelists (Example 4)
Conditions: 40 ppm additive in coffee brew; FOLGERS Classic Decaf roast and ground coffee; versus control brew without additive
Description: Coffee brews were prepared using a commercially available roast and ground coffee product (FOLGERS® brand Classic Decaf coffee) using a standard automatic drip coffee brewer (i.e., MR. COFFEE®). The brewing process was carried out as instructed on the coffee package. Each single peptide in Example 1 and peptide compositions in Examples 2 and 3 were mixed into to the coffee brew. Five expert panelists evaluated the effect of peptide additive on coffee flavor profile.

Row | Substance | Sensory Evaluation
1 | EELLPE [Peptide (Ie)] | Stronger than control, fuller
2 | Pro-Thr-Pro-Leu-Leu (PTPLL) [Peptide (Ia)] | Stronger than control, very bitter
3 | LACHLL [Peptide (Id)] | Strange non-coffee taste charcoal,
4 | Pro-Pro-Thr-Leu-Leu (PPTLL) [Peptide (Ic)] | Stronger than control, bitter
